# According to US12611459B2, “System and method for unbinding of plasma protein-bound active agents using an ultrasound system” (The Brigham and Women's Hospital, Inc., priority 2019, dated 2026):
# Key:
# [1] = target: bovine serum albumin (BSA) (Bos taurus, UniProt P02769); assay: equilibrium dialysis of albumin-phenytoin solution under focused ultrasound (FUS), HPLC of dialysate; type: in vitro ADME; conditions: for phenytoin level in dialysate: FUS 250 kHz, 55 ms TBD, 4 Hz PRF, 5 W/cm2 Isppa, 55 min; for elevation of unbound phenytoin level at the focus: p<0.05
# Description: The ability of FUS to unbind phenytoin from albumin was assessed in this example by an equilibrium dialysis (ED), whereby the cocktail of albumin-phenytoin was sonicated, and unbound phenytoin was allowed to pass through the membrane to be collected and analyzed. As a part of in vitro testing, a visible dye, Toluidine Blue O, was dissolved in an aqueous solution of albumin and the spatial distribution of the degree of its unbinding from the albumin through the application of FUS was qualitatively evaluated via gel infiltration using agar gel block.
# In this example, an in vitro experimental chamber was constructed using a 3D printer (clear resin) to measure the effects of FUS on albumin-phenytoin binding. The chamber includes four slots to place four microdialysis cassettes (7 kMW cut-off pore size; 4×4×0.8 cm; H×L×W) whereby one is placed perpendicular to the sonication focus (‘FF’), and three others are placed away from the focus (‘F01’ through ‘F03’). A FUS transducer having 13 mm focal length (away from the exit plane) and operating at a fundamental frequency of 250 kHz was used to sonicate the middle of the dialysis window (‘FF’). The output pressure wave from the transducer was calibrated for the input signal generator and the acoustic map perpendicular to the sonication axis was mapped using known methods. An identical setup was prepared separately and was not sonicated to provide a control.
# In this example, bovine serum albumin (BSA) was dissolved in a phosphate-buffered saline (PBS) (pH7.4) at a concentration of 46 mg/mL concentration, and 200 mL of resulting solution was poured into the chamber. The experiment was conducted at a room temperature (20-21° C.) and the solution temperature was equilibrated at the ambient temperature. The solution was not degassed and kept the ambient gas content (O2 6.1 ppm; measured using dissolved oxygen meter). The wall of the chamber was padded with rubber inserts to absorb the incident acoustic waves to prevent reflection or reverberation within the chamber.
# In this example, phenytoin was dissolved (15 μg/mL) in PBS having bovine serum albumin (BSA) concentration of 45 mg/mL to emulate the clinical serum concentration. The temperature of the solution was monitored during the sonication to examine the potential effect from the temperature of the solution on the bound phenytoin. The dialysis cassettes, after hydration according to known methods, were filled with PBS (0.5 ML) and were placed into the bath. Subsequently, sonication was given for 55 min at 250 kHz in pulsed manner (55 ms TBD, 4 Hz PRF, at 5 W/cm2 Isppa Spatial-Peak Pulse-Average Intensity, i.e. 22% duty cycle). The mechanical index (MI) of the focus was 0.8 (corresponding to peak negative pressure of 391 kPa). The temperature of the solution was monitored. […] The obtained samples underwent High Performance Liquid Chromatography (HPLC) for the measurement of phenytoin concentration after the calibration of the known absolute level of the phenytoin. The HPLC system consisted of an autosampler, a dual piston pump, and an electrochemical detector coupled to a guard cell and an analytical cell.
# [2] = rat, in vivo
# Description: In this example the effects of focused ultrasound (FUS) on unbinding phenytoin from albumin was evaluated in an animal model (rat). The enhancement of phenytoin was assessed using immunohistochemistry (IHC) followed by intraperitoneal injection of phenytoin and subsequent sonication of the unilateral hemisphere. All IHC was performed on an automated staining platform. Hematoxylin and eosin (H&E) staining was also performed to assess for tissue hemorrhage. The same sonication parameters and device were used as in the first example described above except the sonication was delivered for 35 minutes.
# FUS was delivered to the brain areas in the right hemisphere at a fundamental frequency of 250 kHz in a pulsed manner (55 ms TBD, 4 Hz PRF, at 5 W/cm^2 Isppa) for 35 minutes. FIG. 4 illustrates example mosaic H&E microscope images 402, example, mosaic phenytoin-stained IHC images 404 and example inverted grayscale images 406 of the phenytoin IHC in accordance with an embodiment. […] In the IHC images 404, the dotted ovals 408 indicate the approximate location of the FUS sonication focus (in the right hemisphere of the brain).
# [3] = tested on: plasma proteins, primarily albumin; conditions: cited from earlier work
# Sequence of bovine serum albumin (BSA) (P02769 25-607): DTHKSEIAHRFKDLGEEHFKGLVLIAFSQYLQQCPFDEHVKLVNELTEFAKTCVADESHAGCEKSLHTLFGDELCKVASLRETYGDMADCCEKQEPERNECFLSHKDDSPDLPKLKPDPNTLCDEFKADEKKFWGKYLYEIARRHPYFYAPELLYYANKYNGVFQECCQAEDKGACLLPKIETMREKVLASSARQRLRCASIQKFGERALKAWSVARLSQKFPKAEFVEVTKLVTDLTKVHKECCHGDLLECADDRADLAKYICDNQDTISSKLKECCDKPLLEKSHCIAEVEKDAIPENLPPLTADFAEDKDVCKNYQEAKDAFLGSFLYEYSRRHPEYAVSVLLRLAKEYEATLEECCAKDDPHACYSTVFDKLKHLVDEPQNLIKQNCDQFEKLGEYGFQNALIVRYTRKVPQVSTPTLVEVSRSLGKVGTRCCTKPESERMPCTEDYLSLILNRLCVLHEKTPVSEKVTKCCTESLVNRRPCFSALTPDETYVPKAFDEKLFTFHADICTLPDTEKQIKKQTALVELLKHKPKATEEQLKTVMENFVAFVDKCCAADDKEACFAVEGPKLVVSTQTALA
structure (smiles),measurement,setting,value
O=C1NC(=O)C(c2ccccc2)(c2ccccc2)N1 [phenytoin],phenytoin level in dialysate,"[1]; at the acoustic focus (FF), n=6",1.38 ± 0.2 µg/mL
same,elevation of unbound phenytoin level at the focus,[1]; compared to outside of focus,~21.4%
same,elevation of unbound phenytoin level at the focus,[1]; compared to the control,approximately 27.7%
same,averaged phenytoin level in dialysate,"[1]; control chamber (CTRL), not sonicated, n=12",1.52 ± 0.16 µg/mL
same,phenytoin level in dialysate,"[1]; outside of focus (FO), n=12",1.13 ± 0.08 µg/mL
same,difference in phenytoin level between control condition and outside of focus,[1]; p>0.1,no significant difference
same,tissue injury or hemorrhage (H&E),[2],no evidence of tissue injury or hemorrhage
same,fraction available in an unbound state,[3]; at clinical dose,~12%
same,binding level to plasma proteins,[3]; primarily to albumin,approximately 90%
